Data on 1 molecule can be found in US5530019A, “Indole derivatives useful as testosterone 5α-reductase inhibitors” (Fujisawa Pharmaceutical Co., Ltd., priority 1993, dated 1996).

The experiment concerns the target T1, testosterone 5α-reductase (Rattus norvegicus, UniProt P31214).
T1 construct: The prostates were drained, minced, and then homogenized in 3 -4 tissue volumes of medium A; from tissue; host or cells: ventral prostate of mature male Sprague-Dawley rats, resuspended 3,000 g pellet
T1 sequence (P31214 1-254): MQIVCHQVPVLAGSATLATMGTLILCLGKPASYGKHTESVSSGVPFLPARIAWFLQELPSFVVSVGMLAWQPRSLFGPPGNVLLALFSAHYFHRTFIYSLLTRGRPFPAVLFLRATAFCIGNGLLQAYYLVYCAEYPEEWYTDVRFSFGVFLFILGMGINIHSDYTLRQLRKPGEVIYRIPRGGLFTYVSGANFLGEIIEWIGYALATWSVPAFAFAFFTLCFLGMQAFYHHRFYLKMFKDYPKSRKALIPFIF
In words: Inhibitory activity on testosterone 5α-reductase in rats (rat ventral prostate suspension, 3H-testosterone). The note with it: rat prostatic 5α-reductase; 2.2×10^-9 M testosterone, 50 μM NADPH, pH 6.5, 37° C., 30 minutes. Format: biochemical, rat (Spraque-Dawley male rats). From the text: [2]Inhibitory activity on testosterone 5α-reductase in rats:
1,2,6,7-^3 H-testosterone (85-105 Ci/mmol) is a mixture of 1,2,6,7-3H-testosterone and testosterone which includes 85-105 Ci of 1,2,6,7-^3 H-testosterone per mmol of testosterone and is purchased from New England Nuclear, Boston, Mass., U.S.A.
Aquazol-2 (Aquazol-2 Universal LSC Cocktail) trademark, purchased from New England Nuclear, Boston, Mass., U.S.A. ii) Preparation of prostatic testosterone 5α-reductase
Mature Spraque-Dawley male rats (7-8 weeks old) were sacrificed by diethyl ether. The ventral prostates were dissected to be free of their capsules and their combined volume was measured by displacement in several milliliters of ice-cold medium A (0.32M sucrose, 0.1 mM dithiothreitol and 20 mM sodium phosphate, pH 6.5). Unless specified, all the following procedures were carried out at 0 -4. The prostates were drained, minced, and then homogenized in 3 -4 tissue volumes of medium A with Pyrex-glass homogenizer. […]
The reaction solution contains 1 mM dithiothreitol, 40 mM sodium phosphate pH 6.5, 50 μM NADPH, 1,2,6,7-^3 H-testosterone/testosterone (2.2×10^-9 M) and the suspension prepared above ([…]) in a total volume of 565 μl. […] The radioactivity was determined in 5 ml of Aquazol-2 in Packard scintillation counter (PACKARD TRI-CARB 4530), and an inhibitory ratio was calculated.

pIC50: −log10 of the molar value.

For orientation: pIC50 means the negative decadic logarithm of the IC50, by convention in mol/L. In turn, `CCCCCCCCCCC(=O)c1cn(CCCC(=O)O)c2ccccc12` [(1), 4-(3-Undecanoyl-1-indolyl)butyric acid] gave a pIC50 of 9.36.
